According to the Kinase Knowledgebase extract (Sharma et al. 2016):
Several values for one entry are separate records, joined by “and”; a condition that tells them apart may be missing. Equal values may be shown once.

Molecular target: MAPK14 (human) (UniProt Q16539)
Assay: Inhibition of MAPK14 Kinase Activity
Settings: THP.1 monocytic

MAPK14 (human), sequence (Q16539 whole entry, looked up): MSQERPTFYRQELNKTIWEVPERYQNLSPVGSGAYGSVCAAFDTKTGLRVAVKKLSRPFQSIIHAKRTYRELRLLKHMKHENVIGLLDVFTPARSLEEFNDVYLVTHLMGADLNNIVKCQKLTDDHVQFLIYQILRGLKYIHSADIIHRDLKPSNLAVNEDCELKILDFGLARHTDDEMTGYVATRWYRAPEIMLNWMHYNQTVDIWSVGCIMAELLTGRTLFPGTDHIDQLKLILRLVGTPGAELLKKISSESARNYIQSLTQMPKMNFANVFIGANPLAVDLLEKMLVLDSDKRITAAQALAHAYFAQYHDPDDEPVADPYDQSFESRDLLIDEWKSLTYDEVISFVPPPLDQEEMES

| IC50 | SMILES |
| --- | --- |
| 1 to 25 µM | CNC(=O)c1cnc(Cn2c(C)cc(OCc3ccc(F)cc3F)c(Br)c2=O)cn1 |
| < 1 µM | O=c1c(Cl)c(OCc2ccc(F)cc2F)cc(CO)n1-c1c(F)cc(F)cc1F |
| 25 to 100 µM | Cc1cc(OCc2ccc(F)cc2F)c(Br)c(=O)n1CCN1CCOCC1 |
| < 1 µM | CNC(=O)c1ccc(OC)c(-n2c(C)cc(OCc3ccc(F)cc3F)c(Br)c2=O)c1 |
| 1 to 25 µM | COc1cccc(COc2ccn(Cc3cccc(F)c3)c(=O)c2Br)c1 |
| 1 to 25 µM | Cc1cc(OCc2ccc(F)cc2F)c(Br)c(=O)n1Cc1ccccc1C(N)=O |
| > 100 µM | O=c1c(Br)c(NCc2ccc(F)cc2C(F)(F)F)ccn1Cc1cccc(F)c1 |
| 1 to 25 µM | Cc1cc(OCc2ccc(F)cc2F)c(Br)c(=O)n1Cc1cccc(C(=O)O)c1 |
| < 1 µM | O=c1c(Br)c(OCc2ccccc2)ccn1Cc1cccc(F)c1 |
| < 1 µM | Cc1cc(OCc2ccc(F)cc2F)c(Br)c(=O)n1-c1ccc(C(N)=O)cc1Cl |
| 1 to 25 µM | O=c1c(Br)c(NCc2cccc(C(F)(F)F)c2)ccn1Cc1cccc(F)c1 |
| < 1 µM | Cc1cc(OCc2ccc(F)cc2F)c(Br)c(=O)n1Cc1ccc(C(=O)NCCN)cc1 |
| 25 to 100 µM | Cc1c(Br)c(OCc2ccccc2)c(Br)c(=O)n1Cc1ccccc1 |
| 1 to 25 µM | NC(=O)c1cccc(Cn2ccc(OCc3ccccc3)c(Br)c2=O)c1 |
| < 1 µM | Cc1cccc(C)c1-n1c(C)cc(OCc2ccc(F)cc2F)c(Br)c1=O |
| 1 to 25 µM | NC(=O)c1ccccc1Cn1ccc(OCc2ccccc2)c(Br)c1=O |
| < 1 µM | Cc1cc(OCc2ccc(F)cc2F)c(Br)c(=O)n1-c1cccc(C(=O)NCCN(C)C)c1 |
| 1 to 25 µM | Cc1cc(OCc2ccc(F)cc2F)c(Br)c(=O)n1Cc1cnc(C(C)(C)O)cn1 |
| 1 to 25 µM | CC(C)(C)c1ccc(Cn2ccc(OCc3ccc(F)cc3)c(Br)c2=O)cc1 |
| < 1 µM | Cc1cc(OCc2ccc(F)cc2F)c(Br)c(=O)n1-c1c(F)cc(N(C)C)cc1F |
| < 1 µM | O=c1c(Br)c(OCc2ccccc2)ccn1Cc1ccc(Br)cc1 |
| 1 to 25 µM | Cc1cc(OCc2ccc(F)cc2F)c(Br)c(=O)n1-c1ccc(C(N)=O)cc1 |

| IC50 | SMILES |
| --- | --- |
| 1 to 25 µM | Cc1cc(OCc2ccc(F)cc2F)c(Br)c(=O)n1-c1cccc(CNC(=O)N(C)C)c1 |
| < 1 µM | CC(=O)Nc1ccc(Cn2c(C)cc(OCc3ccc(F)cc3F)c(Br)c2=O)cc1 |
| < 1 µM | Cc1cc(OCc2ccc(F)cc2F)c(Br)c(=O)n1-c1cc(CO)ccc1Cl |
| < 1 µM | COc1ccc(C(=O)N(C)C)cc1-n1c(C)cc(OCc2ccc(F)cc2F)c(Br)c1=O |
| 1 to 25 µM | Cc1cc(CCc2ccccc2)c(Br)c(=O)n1Cc1cccc(F)c1 |
| 1 to 25 µM | O=c1c(Br)c(NCc2ccc(Cl)cc2F)ccn1Cc1cccc(F)c1 |
| > 100 µM | Cc1cc(OCc2cccc(Cl)c2)cc(=O)n1Cc1ccccc1 |
| 25 to 100 µM | N#Cc1ccc(COc2ccn(Cc3cccc(F)c3)c(=O)c2Br)cc1 |
| 1 to 25 µM | O=C(Nc1ccn(Cc2cccc(F)c2)c(=O)c1Br)c1c(F)cccc1F |
| < 1 µM | COCCNCc1cc(OCc2ccc(F)cc2F)c(Br)c(=O)n1-c1c(F)cccc1F |
| > 100 µM | O=c1c(Br)c(O)ccn1Cc1ccc(O)cc1 |
| < 1 µM | Cc1cc(OCc2ccc(F)cc2F)c(Br)c(=O)n1Cc1cnc(C(=O)N2CCN(C)CC2)cn1 |
| < 1 µM | Cc1ccc(CO)cc1-n1c(C)cc(OCc2ccc(F)cc2F)c(Br)c1=O |
| 1 to 25 µM | COC(=O)CCn1ccc(OCc2ccccc2)c(Br)c1=O |
| 1 to 25 µM | Cc1cc(NCc2ccc(F)cc2F)c(Cl)c(=O)n1-c1c(F)cccc1F |
| 1 to 25 µM | Cc1cc(OCc2ccc(F)cc2F)c(Br)c(=O)n1-c1cccc(CN)c1 |
| 25 to 100 µM | CCOC(=O)c1ccc(-n2c(C)cc(OCc3ccc(F)cc3F)c(Br)c2=O)nc1 |
| < 1 µM | Cc1cc(NCc2ccc(F)cc2)c(Br)c(=O)n1Cc1ccc(F)cc1 |
| < 1 µM | COC(=O)c1ccc(Cn2ccc(OCc3ccccc3)c(Br)c2=O)cc1 |
| < 1 µM | N#Cc1ccc(Cn2ccc(OCc3ccccc3)c(Br)c2=O)cc1 |
| 1 to 25 µM | Cc1cc(OCc2ccc(F)cc2F)c(Br)c(=O)n1Cc1cnc(CN(C)C)cn1 |
| 1 to 25 µM | Cc1ccc(COc2ccn(Cc3ccccc3)c(=O)c2Br)cc1 |

| IC50 | SMILES |
| --- | --- |
| 1 to 25 µM | O=c1c(Br)c(CCc2ccccc2)ccn1Cc1ccccc1 |
| < 1 µM | O=c1c(Br)c(OCc2ccc(F)cc2F)cc(CO)n1-c1c(F)cc(F)cc1F |
| < 1 µM | COCCN(C)C(=O)c1ccc(Cn2c(C)cc(OCc3ccc(F)cc3F)c(Br)c2=O)cc1 |
| < 1 µM | CCOC(=O)c1cccc(-n2c(C)cc(OCc3ccc(F)cc3F)c(Br)c2=O)c1 |
| < 1 µM | Cc1cc(OCc2ccc(F)cc2F)c(Br)c(=O)n1-c1c(F)cc(N2CCN(C)CC2)cc1F |
| < 1 µM | Cc1cc(OCc2ccc(F)cc2F)c(Cl)c(=O)n1-c1c(F)cc(F)cc1F |
| 1 to 25 µM | CNC(=O)NCc1cccc(-n2c(C)cc(OCc3ccc(F)cc3F)c(Br)c2=O)c1 |
| < 1 µM | Cc1ccc(C(=O)NCCO)cc1-n1c(C)cc(OCc2ccc(F)cc2F)c(Br)c1=O |
| 25 to 100 µM | O=c1c(Br)c(OCc2ccccc2)ccn1CC1CCNCC1 |
| < 1 µM | Cc1cc(OCc2ccc(F)cc2F)c(Br)c(=O)n1Cc1cccc(CN2CCCCC2)c1 |
| < 1 µM | O=c1c(Br)c(OCc2ccc(F)cc2F)cc(CN2CCOCC2)n1-c1c(F)cccc1F |
| < 1 µM | O=Cc1cc(OCc2ccc(F)cc2F)c(Br)c(=O)n1-c1c(F)cccc1F |
| 1 to 25 µM | Cc1cc(OCc2ccc(F)cc2F)c(Cl)c(=O)n1-c1cccc(C(=O)O)c1 |
| < 1 µM | Cc1cc(OCc2ccc(F)cc2F)c(Cl)c(=O)n1-c1cccc(C(N)=O)c1 |
| < 1 µM | O=c1c(Br)c(NCc2ccc(F)cc2F)ccn1Cc1cccc(F)c1 |
| < 1 µM | COCCNC(=O)c1cccc(-n2c(C)cc(OCc3ccc(F)cc3F)c(Br)c2=O)c1 |
| < 1 µM | Cc1cc(OCc2ccc(F)cc2F)c(Br)c(=O)n1-c1cccc(C(=O)NCCO)c1 |
| 1 to 25 µM | Cc1ncc(Cn2c(C)cc(OCc3ccc(F)cc3F)c(Cl)c2=O)c(N)n1 |
| < 1 µM | Cc1cc(OCc2ccc(F)cc2F)c(Br)c(=O)n1-c1c(F)cc(N2CCOCC2)cc1F |
| > 100 µM | O=c1[nH]ccc(OCc2ccccc2)c1Br |
| 25 to 100 µM | Cc1ccc(Cn2ccc(OCc3ccccc3)cc2=O)cc1 |
| 1 to 25 µM | Cc1cc(OCc2ccc(F)cc2F)c(Br)c(=O)n1-c1cccc(CNC(N)=O)c1 |

| IC50 | SMILES |
| --- | --- |
| 1 to 25 µM | O=c1c(Br)c(NCc2ccccc2)ccn1Cc1cccc(F)c1 |
| < 1 µM | Cc1cc(OCc2ccc(F)cc2F)c(Br)c(=O)n1-c1c(F)cc(N(C)CCO)cc1F |
| 1 to 25 µM | C=CCNc1cc(=O)n(-c2c(F)cccc2F)c(C)c1I |
| 1 to 25 µM | CCn1ccc(OCc2ccccc2)c(Br)c1=O |
| 25 to 100 µM | C=Cc1c(OCc2ccc(F)cc2F)c(Br)c(=O)n(-c2c(F)cccc2F)c1C |
| < 1 µM | Cc1cc(OCc2ccc(F)cc2F)c(Br)c(=O)n1-c1ccc2cn[nH]c2c1 |
| 1 to 25 µM | Cc1ccc(CNC(C)C)cc1-n1c(C)cc(OCc2ccc(F)cc2F)c(Br)c1=O |
| 25 to 100 µM | Cc1c(C=O)c(OCc2ccc(F)cc2F)c(Br)c(=O)n1-c1c(F)cccc1F |
| 1 to 25 µM | Cc1ccc(CN(C)C)cc1-n1c(C)cc(OCc2ccc(F)cc2F)c(Br)c1=O |
| < 1 µM | Cc1cc(OCc2ccc(F)cc2F)c(Br)c(=O)n1Cc1ccc(S(=O)(=O)N(C)C)cc1 |
| < 1 µM | Cc1cc(OCc2ccc(F)cc2F)c(Br)c(=O)n1-c1cccc(C(=O)N(C)C)c1 |
| < 1 µM | Cc1cc(OCc2ccc(F)cc2F)c(Br)c(=O)n1Cc1cccc(CN)c1 |
| < 1 µM | Cc1cc(OCc2ccc(F)cc2F)c(Br)c(=O)n1-c1ccc(CNC(=O)CO)cc1 |
| 1 to 25 µM | Cc1cc(OCc2ccc(F)cc2F)c(Cl)c(=O)n1-c1cccc(CO)c1 |
| 1 to 25 µM | CC(C)(C)c1ccc(Cn2ccc(OCc3ccc(F)cc3F)c(Br)c2=O)cc1 |
| 1 to 25 µM | C=CCNc1cc(C)n(-c2c(F)cccc2F)c(=O)c1Br |
| < 1 µM | Cc1cccc(C)c1-n1c(C)cc(OCc2c(F)cc(F)cc2F)c(Br)c1=O |
| < 1 µM | CN(C)Cc1cc(OCc2ccc(F)cc2F)c(Br)c(=O)n1-c1c(F)cccc1F |
| < 1 µM and 1 to 25 µM | Cc1cc(OCc2ccc(F)cc2F)c(Br)c(=O)n1Cc1ccc(C(=O)NO)cc1 |
| < 1 µM | O=C(O)c1ccc(Cn2ccc(OCc3ccccc3)c(Br)c2=O)cc1 |
| > 100 µM | O=c1c(Br)c(OCc2ccccc2-c2ccccc2)ccn1Cc1cccc(F)c1 |
| < 1 µM | Cc1cc(OCc2ccc(F)cc2F)c(Br)c(=O)n1CC1CC1 |

| IC50 | SMILES |
| --- | --- |
| 1 to 25 µM | Cc1cc(OCc2ccc(F)cc2F)c(Br)c(=O)n1-c1cc(CO)ccc1F |
| < 1 µM | Cc1cc(OCc2ccc(F)cc2F)c(Br)c(=O)n1-c1cccc(C(N)=O)c1 |
| < 1 µM | Cc1cc(OCc2ccc(F)cc2F)c(Br)c(=O)n1Cc1cccc(CNC(=O)CO)c1 |
| < 1 µM | CNC(=O)c1ccc(C)c(-n2c(C)cc(OCc3ccc(F)cc3F)c(Cl)c2=O)c1 |
| > 100 µM | CC(C)(C)c1ccc(COc2ccn(Cc3cccc(F)c3)c(=O)c2Br)cc1 |
| < 1 µM | Cc1ccc(C(N)=O)cc1-n1c(C)cc(OCc2ccc(F)cc2F)c(Cl)c1=O |
| 1 to 25 µM | Cc1cc(OCc2ccc(F)cc2F)c(Cl)c(=O)n1Cc1cnc(CO)cn1 |
| > 100 µM | O=c1cc(OCc2c(Cl)cccc2Cl)ccn1Cc1ccccc1 |
| < 1 µM | Cc1cc(OCc2ccc(F)cc2F)c(Br)c(=O)n1-c1ccc(C(=O)NCCCN)cc1 |
| < 1 µM | Cc1cc(OCc2ccc(F)cc2F)c(Br)c(=O)n1Cc1ccc(C(=O)N(CCO)CCO)cc1 |
| < 1 µM and 1 to 25 µM | CNC(=O)c1ccc(Cn2c(C)cc(OCc3ccc(F)cc3F)c(Br)c2=O)cc1 |
| < 1 µM | Cc1cc(OCc2ccc(F)cc2F)c(Cl)c(=O)n1-c1cc(CO)ccc1Cl |
| 1 to 25 µM | Cc1cc(OCc2ccc(F)cc2F)c(Br)c(=O)n1-c1cccc(CNS(C)(=O)=O)c1 |
| < 1 µM | Cc1cc(NCc2ccc(F)cc2F)c(Cl)c(=O)n1Cc1cccc(C#N)c1 |
| 25 to 100 µM | O=c1cc(OCc2ccccc2)ccn1Cc1ccc(OC(F)(F)F)cc1 |
| < 1 µM | CC(=O)NCc1cccc(Cn2c(C)cc(OCc3ccc(F)cc3F)c(Br)c2=O)c1 |
| 1 to 25 µM | O=c1c(Br)c(CCc2ccccc2)ccn1Cc1cccc(F)c1 |
| 1 to 25 µM | O=C(Nc1ccn(Cc2cccc(F)c2)c(=O)c1Br)c1ccc(F)cc1 |

| SMILES | IC50 |
| --- | --- |
| CNCc1cnc(Cn2c(C)cc(OCc3ccc(F)cc3F)c(Br)c2=O)cn1 | 1 to 25 µM |
